Reference: patent US12286442B2, “Methods and materials for increasing transcription factor eb polypeptide levels” (University of Pittsburgh—Of the Commonwealth System of …, priority 2019, dated 2025)
“Also recorded” adds a separate entry of the source.

Tests used:
TFEB [1] = experiment: High content screen measuring TFEB nuclear accumulation (TFEB nuclear/cytosol ratio) in BEAS-2B cells stably expressing TFEB-EGFP; format: cell-based, human; settings: 18 hours incubation
Method in brief: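 Readout: lowest compound concentration giving a 25% rise in nuclear/cytosol TFEB-GFP ratio, from DAPI-masked nuclear and mask-expanded cytosolic signals. Cells (BEAS-2B, TFEB-EGFP stable, ~2300–2500/well) rested 8 hours, then treated 18 hours with compound serial dilutions in 2% FBS medium before PFA fixation and DAPI staining.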

liver lysosomes = experiment: Liver lysosomal activity in mice (dextran blue confocal microscopy, Lamp2 immunostaining); format: in vivo; settings: female C57BL6 mice, i.p. for 4 days, 50 mg/kg/d or 30 mg/kg/day; for liver lysosomal dextran blue signal (lysosomal number and activity): liver 24 hours after i.v. dextran blue; for liver Lamp2 staining: liver slides
Procedure: FIG. 7. Compound 15 increases liver lysosomal activity. Female C57BL6 mice were intraperitoneally (i.p.) injected with Cmpd. 15 (50 mg/kg/d) for 4 days. Mice were then intravenously (i.v.) injected with dextran blue. 24 hours later, mice were sacrificed, and livers were removed and imaged through confocal microscopy. White fluorescent signal indicates dextran blue within lysosome and provides a measure of lysosomal number and activity within the hepatic tissue (Upper panels). […] Scale bar: 50 microns.
Female C57BL6 mice were i.p. injected with Compound 15 (30 mg/kg/day) for 4 days. Mice were then i.v. injected with dextran blue. 24 hours later, mice were sacrificed, and liver samples were removed and imaged through confocal microscopy.

BEAS-2B cells = experiment: Toxicity: compound concentration needed to induce greater than 50 percent of cell loss; format: cell-based, human; settings: 18 hours incubation
Method in brief: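 Reported value is the concentration giving greater than 50 percent cell loss, grouped into bins (≥25 μM; between 1 and 25 μM; ≤1 μM as "+++"). Measured by high-content imaging of DAPI-stained BEAS-2B TFEB-EGFP cells fixed after 18 h compound exposure.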

TFEB [2] = experiment: Immunoblotting for TFEB-GFP protein levels in MLE12 cells stably expressing TFEB-EGFP; format: cell-based, murine; settings: dose dependent, 18 hours / 24 hours
Procedure: (§1) FIGS. 2A-C. BC1753 increases TFEB polypeptide levels. A. The structure of BC1753 is provided. B. MLE12 cells stably expressing TFEB-EGFP were treated with the indicated amounts of BC1753 for 24 hours before immunoblotting for TFEB-GFP and β-actin. C. MLE12 cells stably expressing TFEB-EGFP were treated with the indicated amounts of BC1753 for 24 hours before imaging by confocal microscopy (scale bar=10 μm).
(§2) BC1753 (FIG. 2A) was tested for its ability to increase TFEB polypeptide levels. Briefly, murine lung epithelial cells (MLE12) stably expressing TFEB-EGFP were treated with BC1753 in a dose dependent manner for 18 hours. Cells were then collected and assayed by immunoblotting for TFEB-GFP protein levels (FIG. 2B). Murine lung epithelial cells (MLE12) stably expressing TFEB-EGFP were treated with […] in a dose dependent manner for 18 hours. Cells were then fixed with 4% PFA followed by DAPI staining. TFEB localization was imaged on the GFP channel along with the DAPI signal using a Nikon A1 confocal microscope (FIG. 2C).

TFEB [3] = experiment: Confocal imaging of TFEB localization in MLE12 cells stably expressing TFEB-EGFP; format: cell-based, murine; settings: dose dependent, 18 hours / 24 hours
Procedure: as §1, §2

[4] = tested on: b-hexosaminidase (a lysosomal enzyme); experiment: Secreted b-hexosaminidase activity normalized with cellular b-hexosaminidase activity in Beas2B cells; format: cell-based, human; settings: indicated concentration, 18 hours
Procedure: (§3) FIGS. 5A-B. Compound 133 and Compound 115 increased lysosomal protein expression and secretion. A. Beas2B cells were treated with Cmpd. 133 at 10 μM for 24 hours. Cells then were collected and assayed for lysosomal protein gene expression. B. Beas2B cells were treated with Cmpd. 115 at the indicated concentration for 18 hours. Secreted b-hexosaminidase activity (a lysosomal enzyme) then was measured and normalized with cellular b-hexosaminidase activity.

[5] = tested on: lysosomal protein gene expression; experiment: Lysosomal protein gene expression in Beas2B cells; format: cell-based, human; settings: 10 μM for 24 hours
Procedure: as §3

Beas2B cells = experiment: Lysosome quantity in Beas2B cells (light microscope, lysotracker Red confocal microscopy); format: cell-based, human; settings: 18 hours, 1 μM or indicated concentrations
Procedure: FIGS. 4A-B. Compound 178 (BC1834) and Compound 160 (BC18200) increased lysosome quantity. A. Beas2B cells were treated with Cmpd. 178, Cmpd. 160, or the GSK3b inhibitor TWS119 (1 μM for 18 hours). Cells were then imaged through light microscope. B. Beas2B cells were treated with Cmpd. 178 for 18 hours at the indicated concentrations. Cells were then stained with lysotracker Red (100 nM) for 30 minutes. Cells then were washed and imaged through confocal microscopy.

GFP-72Q (Huntingtin) = experiment: GFP-Huntingtin levels in SH5Y cells stably transfected with GFP-72Q (confocal imaging, immunoblot); format: cell-based; settings: SH5Y cells stably expressing GFP-Huntingtin (72Q), indicated amounts, 24 hours
Procedure: FIGS. 6A-B. Compound 178 reduced Huntingtin gene expression. A-B. SH5Y cells stably transfected with GFP-72Q (Huntingtin) were treated with the indicated amounts of Cmpd. 178 for 24 hours. Cells then were imaged with a confocal microscope or collected and assayed for protein expression using a GFP-Huntingtin immunoblot.
Compound 178 (BC1834) was tested for the ability to reduce Huntingtin polypeptide levels within cells. Briefly, Compound 178 was administered to SH5Y cells stably expressing GFP-Huntingtin (72Q).

SMILES	efficacy (minimal compound concentration needed to increase TFEB nuclear/cytosol ratio by 25%) (TFEB [1])	toxicity (compound concentration needed to induce greater than 50 percent of cell loss) (BEAS-2B cells)	secretion of the lysosomal enzyme beta hexosaminidase [4]	lysosomal protein expression [5]	other results
c1ccc2c(Nc3ccc4[nH]ccc4c3)nc(-c3ccncc3)nc2c1 [Compound 15]	+++ (“+++” equals ≤1 μM)	+ (cell loss of greater than 50 percent at a concentration that equals or is greater than 25 μM was represented as)	–	–	liver lysosomal dextran blue signal (lysosomal number and activity) (liver lysosomes): increases; liver Lamp2 staining (liver lysosomes): enhanced signals
COc1ccc(-n2c(=O)c3ccc(C(=O)NCCc4ccccc4)cc3n(CC(=O)Nc3ccc(C)cc3)c2=O)cc1 [BC1753]	–	–	–	–	total TFEB polypeptide levels within cells (TFEB-GFP immunoblot) (TFEB [2]): increases; also recorded: drastically increased; nuclear TFEB polypeptide accumulation (confocal microscopy) (TFEB [3]): increased
COc1cccc2c(Nc3ccc4[nH]ccc4c3)nc(-c3ccncc3)nc12 [Compound 115]	+ (“+” equals >25 μM)	+ (cell loss of greater than 50 percent at a concentration that equals or is greater than 25 μM was represented as)	increased	–	–
c1ccc2c(Nc3ccc4[nH]ncc4c3)nc(-c3ccncc3)nc2c1 [Compound 160]	+++ (“+++” equals ≤1 μM)	++ (cell loss of greater than 50 percent at a concentration less than 25 μM and greater than 1 μM was represented as)	increase	increase	lysosome quantity (Beas2B cells): increase
c1ccc2c(Nc3ccc4ccncc4c3)nc(-c3ccncc3)nc2c1 [Compound 13]	+ (“+” equals >25 μM)	+ (cell loss of greater than 50 percent at a concentration that equals or is greater than 25 μM was represented as)	–	–	liver lysosomal dextran blue signal (lysosomal number and activity) (liver lysosomes): drastically increased; liver Lamp2 staining (liver lysosomes): drastically increased
Fc1cccc(Nc2nc(-c3ccncc3)nc3ccccc23)c1 [Compound 178]	+++ (“+++” equals ≤1 μM)	+ (cell loss of greater than 50 percent at a concentration that equals or is greater than 25 μM was represented as)	increase	increase	lysosome quantity (Beas2B cells): increase; GFP-Huntingtin polypeptide levels (GFP-72Q (Huntingtin)): dose dependently reduced
c1cnc2nc(-c3ccncc3)nc(Nc3ccc4c(c3)OCO4)c2c1 [Compound 133]	+++ (“+++” equals ≤1 μM)	+ (cell loss of greater than 50 percent at a concentration that equals or is greater than 25 μM was represented as)	–	increased	–
c1ccc2c(Nc3cccc4[nH]nnc34)nc(-c3ccncc3)nc2c1 [Compound 101]	+ (“+” equals >25 μM)	+ (cell loss of greater than 50 percent at a concentration that equals or is greater than 25 μM was represented as)	–	–	–
c1cnc2ccc(Nc3nc(-c4ccncc4)nc4ccncc34)cc2c1 [Compound 127]	++ (“++” equals between ≤25 μM and >1 μM)	+ (cell loss of greater than 50 percent at a concentration that equals or is greater than 25 μM was represented as)	–	–	–
CC(C)c1nc2ccc(Nc3nc(-c4ccncc4)nc4ccccc34)cc2o1 [Compound 374]	++ (“++” equals between ≤25 μM and >1 μM)	+ (cell loss of greater than 50 percent at a concentration that equals or is greater than 25 μM was represented as)	–	–	–
